Experimental data reported in patent publication US20070244077A1, “COMPOSITION AND METHOD OF TREATING PERIPHERAL NEUROPATHY” (priority 2006, published 2007).

Experiments:
Assay type in all cases: in vivo, rat
[1] = system: streptozotocin-induced diabetic rats; assay: Tactile allodynia, 50% withdrawal force to von Frey filaments in experimentally diabetic rats; conditions: for prevention of tactile allodynia (result in words): 3 months of treatment, diabetic rats, FIG. 2, aspirin 0.3 mg/kg, VIT E 4 g/kg diet, AMG 3 g/kg diet, PJ-34 20 mg/kg daily in drinking water; for animals in which development of tactile allodynia was prevented: SFZ 150 mg/kg BW daily in drinking water, vs non-treated diabetic group
From the text: Streptozotocin-induced diabetic rats (6-8 animals per group) were either left untreated or subjected to treatment with SFZ for up to 9 months. The presence of tactile allodynia was investigated at different time-points. […] Diabetic rats were either left untreated or subjected to treatment with either SFZ, the PARP inhibitor PJ-34, vitamin E (Vit E), or aminoguanidine (AMG) for 3 months. […] Experimentally diabetic rats display tactile allodynia (i.e., the perception of non-painful stimuli as painful), as evidenced by a significant decrease in the 50% withdrawal force (force at which there is a 50% probability of withdrawal) to von Frey filaments (FIGS. 1 and 2). The tactile allodynia was evident as early as 1 month after induction of diabetes and persisted throughout the experimental period (FIG. 1). Importantly, when compared to the non-treated diabetic group, administration of SFZ (150 mg/kg BW, daily, added to drinking water) prevented the development of tactile allodynia in either 50% or 80-100% of the animals after one or three months of treatment, respectively. We compared the effect of SFZ treatment on tactile allodynia in experimentally diabetic rats with those elicited by other salicylates (i.e. aspirin, 0.3 mg/kg), by the anti-oxidants Vitamin E (VIT E; 4 g/kg diet) and by aminoguanidine (AMG; 3 g/kg diet) and by the poly-ADP ribose-polymerase (PARP) inhibitor PJ-34 (20 mg/kg, daily, added to drinking water).

[2] = system: streptozotocin-induced diabetic rats; assay: Mechanical hyperalgesia, Randall and Selitto test in streptozotocin-induced diabetic rats; conditions: results not shown
From the text: Experimentally diabetic rats display nociceptive alterations in addition to tactile allodynia.

PGE2 = PGE2 levels by ELISA in sciatic nerve extracts of diabetic rats; conditions: sciatic nerves; SFZ 200 mg/Kg BW daily for 9 months; mean ± SD of 3 animals
Experimental: (§1) NO levels were assayed in extracts from sciatic nerves (epineurium-free) by measuring the stable metabolites of NO (nitrate+nitrite) using a fluorometric assay kit. At the same time, the levels of PGE2 were evaluated by ELISA using a commercial kit (Cayman Chemical). In parallel samples, we also performed an immunoblot analysis to investigate possible changes in the expression of COX-2, one of the enzymes that convert arachidonic acid into PGE2.

adenosine derivatives = assay: Reverse-phase HPLC of adenosine derivatives (inosine, AMP) in sciatic nerve extracts of diabetic rats; conditions: total sciatic nerves; SFZ 200 mg/Kg BW daily for 9 months; mean ± SEM of 4 animals
From the text: Administration of either adenosine or of adenosine kinase or adenosine deaminase inhibitors appears to increase nociception thresholds. Two studies have reported that acute administration of either adenosine or adenosine kinase inhibitors can prevent some nerve abnormalities in experimental diabetes. […] However, no studies have investigated the eventual changes in levels of adenosine (or its metabolites) in diabetic nerves. […] Given these precedents, and to determine whether the beneficial effects of SFZ might be mediated through changes in adenosine levels, we measured the levels of this nucleoside in sciatic nerve extracts. Separation of adenosine derivatives was performed by reverse-phase HPLC in […]. This method allows proper separation of ATP, ADP, AMP, adenosine and inosine standards (FIG. 6). Under our experimental conditions we didn't detect an adenosine peak in the sciatic nerve extracts, but we typically observed small peaks corresponding to ATP and ADP and two relatively large peaks corresponding to AMP and inosine (a metabolite obtained by deamination of adenosine) (FIG. 7). The lack of an adenosine peak following fractionation of the sciatic nerve extracts is consistent with metabolism to AMP and/or with the presence of significant adenosine deaminase activity in these samples (and complete degradation to inosine and other breakdown products). […] The analysis of the elution profiles corresponding to sciatic nerve extracts prepared from normal, diabetic and SFZ-treated diabetic rats is summarized in Table 3. We observed that the SFZ-treated diabetic rats display an increase of inosine and a decrease in AMP levels. The design of these experiments could be improved to include the derivatization of samples (and increase the resolution of the ATP and ADP peaks) and/or dual analysis of samples to improve separation of overlapping components.

p65 NFkB = assay: Western blot of p65 NFkB expression in sciatic nerves of diabetic rats; conditions: 3-month SFZ-treated diabetic rats, immunoblot, FIG. 3
From the text: FIG. 3 is a Western blot analysis of p65 NFkB and CREB expression in sciatic nerves from individual normal (N), 3-month diabetic (D) and 3-month SFZ-treated diabetic (S) rats. Nerve proteins were subjected to SDS-PAGE and immunoblotting with antisera against p65 NFkB (left panel) or total (CREB) and phosphorylated CREB (p-CREB) (right panel). The ratio between the levels of pCREB and total CREB, in arbitrary units, is shown at the bottom of the respective lanes (numbers underneath the lanes). Blots were also probed using anti-ERK2 to control for protein loading. We carried out preliminary studies to determine the ability of commercial antibodies to detect the p65 subunit of NFkB, phospho-CREB (p-CREB) and CREB in sciatic nerve extracts (FIG. 3), as well as the possible changes in the expression of these transcription factors during experimental diabetes. The signal detected in the immunoblots is likely to reflect the presence of these transcription factors in Schwann cells, fibroblasts and/or endothelial cells. […] We are currently performing electrophoretic mobility shift assays (EMSA) to determine whether the increased immunoreactivity of p65 NFkB in diabetic nerves is paralleled by an increase in NFkB activity. At the same time, we observed a modest decrease in the levels of p-CREB relative to total CREB in diabetic nerves (FIG. 3, right panel). […]

NO = NO levels (nitrate+nitrite, fluorometric assay kit) in sciatic nerve extracts of diabetic rats; conditions: sciatic nerves; SFZ 200 mg/Kg BW daily for 9 months; mean ± SD of 3 animals
Experimental: as §1

COX-2 = assay: Immunoblot of COX-2 expression in sciatic nerve extracts of diabetic rats; conditions: normal vs diabetic vs SFZ-treated diabetic animals, FIG. 5
Experimental: as §1

Vitamin E [VIT E]
prevention of tactile allodynia (result in words) [1]: partial prevention of tactile allodynia

N=C(N)NN [AMG, aminoguanidine]
prevention of tactile allodynia (result in words) [1]: partial prevention of tactile allodynia

CC(=O)Oc1ccccc1C(=O)O [aspirin]
prevention of tactile allodynia (result in words) [1]: partial prevention of tactile allodynia

CN(C)CC(=O)Nc1ccc2[nH]c(=O)c3ccccc3c2c1 [PJ-34]
prevention of tactile allodynia (result in words) [1]: partial prevention of tactile allodynia

O=C(O)c1cc(/N=N/c2ccc(S(=O)(=O)Nc3ccccn3)cc2)ccc1O [SFZ, 5([p(2-pyridylsulfamoyl)phenyl]azo)salicylic acid]
prevention of tactile allodynia (result in words) [1]: completely prevents the development of tactile allodynia
animals in which development of tactile allodynia was prevented ([1]; after one month of treatment): 50%
animals in which development of tactile allodynia was prevented ([1]; after three months of treatment): 80-100%
prevention of tactile allodynia over time (result in words) ([1]; treatment for up to 9 months, different time-points, FIG. 1): prevents the development of tactile allodynia
effect on mechanical withdrawal thresholds (mechanical hyperalgesia) [2]: modest amelioration of the mechanical thresholds that was not statistically significant
PGE2 (PGE2): 366 ± 220 pmoles/mg protein
AMP (adenosine derivatives): 2.04 ± 0.37 nmoles/mg protein
Inosine (adenosine derivatives): 5.25 ± 0.64 nmoles/mg protein
Inosine/AMP (adenosine derivatives): 2.71 ± 1.34
diabetes-induced increase in expression of p65 NFkB in sciatic nerves (p65 NFkB): can be prevented by SFZ treatment
NO (NO): 3.08 ± 0.25 nmoles/mg protein
expression of COX-2 in sciatic nerve (COX-2): did not observe any significant changes
